Measured values published in ChEMBL document CHEMBL4017456, “The discovery of tetrahydropyridine analogs as hNav1.7 selective inhibitors for analgesia” (Bioorg Med Chem Lett, 2017).
One block for each compound: values may come before it.

How the values were obtained:
[1] = Ratio of drug level in brain to plasma in Sprague-Dawley rat at 0.5 mg/kg, iv or 2 mg/kg, po by LC-MS/MS analysis; type: ADME, organism-based; conditions: read-out: BPR
in vivo [2] = conditions: Sprague-Dawley, rat, iv, 0.5 mg/kg
in vivo [3] = conditions: Sprague-Dawley, rat, plasma, po, 2 mg/kg
in vivo [4] = conditions: Sprague-Dawley, rat, iv, 0.5 mg/kg; remark: listed apart in the source
in vivo [5] = conditions: Sprague-Dawley, rat, plasma, iv, 0.5 mg/kg
in vivo [6] = conditions: Sprague-Dawley, rat, plasma, iv, 0.5 mg/kg; remark: listed apart in the source
in vivo [7] = conditions: Sprague-Dawley, rat, plasma, po, 2 mg/kg; remark: listed apart in the source
in vivo [8] = conditions: Sprague-Dawley, rat, plasma, po, 2 mg/kg; remark: listed apart in the source
Plasma [9] = test: Plasma concentration in Sprague-Dawley rat at 100 mg/kg administered via oral gavage by LC-MS/MS method; type: ADME, organism-based; conditions: in vivo
Plasma [10] = test: Free plasma concentration in Sprague-Dawley rat at 100 mg/kg administered via oral gavage by LC-MS/MS method; type: ADME, organism-based; conditions: in vivo
in vitro = conditions: human, Caco-2
in vivo [11] = conditions: Sprague-Dawley, rat, plasma, po, 10 mg/kg
[12] = Half life in Sprague-Dawley rat plasma at 1 mg/kg, iv administered as single bolus dose by LC-MS/MS analysis; type: ADME, organism-based
[13] = Ratio of drug level in brain to plasma in Sprague-Dawley rat at 1 mg/kg, iv or 10 mg/kg, po by LC-MS/MS analysis; type: ADME, organism-based; conditions: read-out: BPR
[14] = Volume of distribution at steady state in Sprague-Dawley rat plasma at 1 mg/kg, iv administered as single bolus dose by LC-MS/MS analysis; type: ADME, organism-based; conditions: read-out: Vdss
[15] = Clearance in Sprague-Dawley rat at 1 mg/kg, iv administered as single bolus dose by LC-MS/MS analysis; type: ADME, organism-based; conditions: in vivo
[16] = AUC (0 to last) in Sprague-Dawley rat plasma at 1 mg/kg, iv administered as single bolus dose by LC-MS/MS analysis; type: ADME, organism-based; parameters: dose 1 mg/kg, route intravenous, time 0 - last
in vivo [17] = conditions: Sprague-Dawley, rat, plasma, po, 10 mg/kg; remark: listed apart in the source
in vivo [18] = conditions: Sprague-Dawley, rat, plasma, po, 10 mg/kg; remark: listed apart in the source

Kp [1]: 0.26
clearance (in vivo [2]): 39.2 mL/min/kg
bioavailability (in vivo [3]): 18.4%
AUC(0-t) (in vivo [4]): 0.34 µM·h
half-life (in vivo [5]): 3.6 h
Vd (in vivo [6]): 8.9 L/kg
Tmax (in vivo [7]): 1.7 h
AUC(0-t) (in vivo [8]): 0.25 µM·h
Structure (SMILES): N[C@@H]1CCC=C(c2ccc(F)cc2)[C@H]1COc1cc(F)c(S(=O)(=O)Nc2cscn2)cc1Cl

concentration (Plasma [9]): 82.1 µM
Cp(f) (Plasma [10]): 0.41 µM
Structure (SMILES): O=S(=O)(Nc1cscn1)c1cc(Cl)c(OC[C@H]2NCCC=C2c2ccc(F)cc2)cc1F

Papp A→B (in vitro): 3.2 ×10⁻⁶ cm/s
bioavailability (in vivo [11]): 64.8%
half-life [12]: 2.7 h
Kp [13]: 0.017
Vd [14]: 0.6 L/kg
clearance [15]: 4.5 mL/min/kg
AUC(0-t) [16]: 3.56 µM·h
AUC(0-t) (in vivo [17]): 41.8 µM·h
Tmax (in vivo [18]): 3.8 h
Structure (SMILES): O=S(=O)(Nc1cscn1)c1cc(Cl)c(OCC2NCCC=C2c2ccc(F)cc2)cc1F (stereo unspecified)

concentration (Plasma [9]): 55.8 µM
Cp(f) (Plasma [10]): 0.279 µM
Structure (SMILES): Nc1[nH]ncc1-c1cc(Cl)ccc1Oc1cc(F)c(S(=O)(=O)Nc2cscn2)cc1Cl [PF-05089771]
